How the values were obtained:
BT-549 [1] = experiment: Growth inhibition of human BT549 cells assessed as cell growth at 10 uM after 48 hrs by sulforhodamine B assay; type: functional; conditions: BT-549, 48 h, read-out: Activity
[2] = Growth inhibition of human Hs 578T cells assessed as cell growth at 10 uM after 48 hrs by sulforhodamine B assay; type: functional; conditions: read-out: Activity
MCF7 [3] = experiment: Growth inhibition of human MCF7 cells assessed as cell growth at 10 uM after 48 hrs by sulforhodamine B assay; type: functional; conditions: MCF7, 48 h, read-out: Activity
DU-145 [4] = experiment: Growth inhibition of human DU145 cells assessed as cell growth at 10 uM after 48 hrs by sulforhodamine B assay; type: functional; conditions: DU-145, 48 h, read-out: Activity
SN12C = experiment: Growth inhibition of human SN12C cells assessed as cell growth at 10 uM after 48 hrs by sulforhodamine B assay; type: functional; conditions: read-out: Activity
CAKI-1 = experiment: Growth inhibition of human CAKI-1 cells assessed as cell growth at 10 uM after 48 hrs by sulforhodamine B assay; type: functional; conditions: CAKI-1, 48 h, read-out: Activity
SW-620 = experiment: Growth inhibition of human SW620 cells after 48 hrs by sulforhodamine B assay; type: functional; conditions: SW-620, 48 h
KM12 = experiment: Growth inhibition of human KM12 cells after 48 hrs by sulforhodamine B assay; type: functional, cell-based; conditions: KM12, 48 h
NCI-H522 = experiment: Growth inhibition of human NCI-H522 cells after 48 hrs by sulforhodamine B assay; type: functional; conditions: NCI-H522, 48 h
NCI-H460 = experiment: Growth inhibition of human NCI-H460 cells after 48 hrs by sulforhodamine B assay; type: functional; conditions: NCI-H460, 48 h
NCI-H322M [5] = experiment: Growth inhibition of human NCI-H322M cells after 48 hrs by sulforhodamine B assay; type: functional
A549 = experiment: Growth inhibition of human A549/ATCC cells after 48 hrs by sulforhodamine B assay; type: functional; conditions: A549, 48 h
RPMI-8226 = experiment: Growth inhibition of human RPMI8226 cells after 48 hrs by sulforhodamine B assay; type: functional, cell-based; conditions: RPMI-8226, 48 h
K562 [6] = experiment: Growth inhibition of human K562 cells after 48 hrs by sulforhodamine B assay; type: functional; conditions: K562, 48 h
CCRF-CEM [7] = experiment: Growth inhibition of human CCRF-CEM cells after 48 hrs by sulforhodamine B assay; type: functional
RXF 393 [8] = experiment: Growth inhibition of human RXF393 cells assessed as cell growth at 10 uM after 48 hrs by sulforhodamine B assay; type: functional; conditions: RXF 393, 48 h, read-out: Activity
ACHN = experiment: Growth inhibition of human ACHN cells assessed as cell growth at 10 uM after 48 hrs by sulforhodamine B assay; type: functional; conditions: read-out: Activity
OVCAR-5 [9] = experiment: Growth inhibition of human OVCAR5 cells assessed as cell growth at 10 uM after 48 hrs by sulforhodamine B assay; type: functional; conditions: OVCAR-5, 48 h, read-out: Activity
OVCAR-4 = experiment: Growth inhibition of human OVCAR4 cells assessed as cell growth at 10 uM after 48 hrs by sulforhodamine B assay; type: functional; conditions: OVCAR-4, 48 h, read-out: Activity
UACC-62 = experiment: Growth inhibition of human UACC62 cells assessed as cell growth at 10 uM after 48 hrs by sulforhodamine B assay; type: functional; conditions: UACC-62, 48 h, read-out: Activity
IGROV-1 [10] = experiment: Growth inhibition of human IGROV1 cells assessed as cell growth at 10 uM after 48 hrs by sulforhodamine B assay; type: functional; conditions: IGROV-1, 48 h, read-out: Activity
UACC-257 = experiment: Growth inhibition of human UACC257 cells assessed as cell growth at 10 uM after 48 hrs by sulforhodamine B assay; type: functional; conditions: UACC-257, 48 h, read-out: Activity
U-251 = experiment: Growth inhibition of human U251 cells assessed as cell growth at 10 uM after 48 hrs by sulforhodamine B assay; type: functional; conditions: U-251, 48 h, read-out: Activity
NCI-H322M [11] = experiment: Growth inhibition of human NCI-H322M cells assessed as cell growth at 10 uM after 48 hrs by sulforhodamine B assay; type: functional; conditions: read-out: Activity
BT-549 [12] = experiment: Growth inhibition of human BT549 cells after 48 hrs by sulforhodamine B assay; type: functional; conditions: BT-549, 48 h
MCF7 [13] = experiment: Growth inhibition of human MCF7 cells after 48 hrs by sulforhodamine B assay; type: functional; conditions: MCF7, 48 h
DU-145 [14] = experiment: Growth inhibition of human DU145 cells after 48 hrs by sulforhodamine B assay; type: functional; conditions: DU-145, 48 h
UO-31 = experiment: Growth inhibition of human UO31 cells after 48 hrs by sulforhodamine B assay; type: functional; conditions: UO-31, 48 h
RXF 393 [15] = experiment: Growth inhibition of human RXF393 cells after 48 hrs by sulforhodamine B assay; type: functional; conditions: RXF 393, 48 h
A498 = experiment: Growth inhibition of human A498 cells after 48 hrs by sulforhodamine B assay; type: functional, cell-based; conditions: A498, 48 h
OVCAR-8 = experiment: Growth inhibition of human OVCAR8 cells after 48 hrs by sulforhodamine B assay; type: functional; conditions: OVCAR-8, 48 h
OVCAR-5 [16] = experiment: Growth inhibition of human OVCAR5 cells after 48 hrs by sulforhodamine B assay; type: functional; conditions: OVCAR-5, 48 h
IGROV-1 [17] = experiment: Growth inhibition of human IGROV1 cells after 48 hrs by sulforhodamine B assay; type: functional; conditions: IGROV-1, 48 h
K562 [18] = experiment: Growth inhibition of human K562 cells assessed as cell growth at 10 uM after 48 hrs by sulforhodamine B assay; type: functional; conditions: K562, 48 h, read-out: Activity
CCRF-CEM [19] = experiment: Growth inhibition of human CCRF-CEM cells assessed as cell growth at 10 uM after 48 hrs by sulforhodamine B assay; type: functional; conditions: read-out: Activity
[20] = read-out: LC50 (the source's name)

O=C(Nc1cccc(-n2cc(-c3ccncc3)c(-c3ccc(Cl)c(O)c3)n2)c1)Nc1ccc(Cl)c(C(F)(F)F)c1
growth at 10 µM (BT-549 [1]): 1.33%
growth at 10 µM [2]: -7.39%
growth at 10 µM (MCF7 [3]): -16.6%
growth at 10 µM (DU-145 [4]): -17%
growth at 10 µM (SN12C): 7.46%
growth at 10 µM (CAKI-1): 17.3%
GI50 (SW-620): 1.15 µM
TGI (SW-620): 4.16 µM
CC50 (SW-620; [20]): > 32.5 µM
GI50 (KM12): 1 µM
TGI (KM12): 3.51 µM
CC50 (KM12; [20]): 17.4 µM
GI50 (NCI-H522): 0.72 µM
LC50 (concentration killing 50% of cells) (NCI-H522): 24.5 µM
TGI (NCI-H522): 2.5 µM
GI50 (NCI-H460): 1.01 µM
LC50 (NCI-H460): > 32.5 µM
TGI (NCI-H460): 4 µM
GI50 (NCI-H322M [5]): 1.09 µM
TGI (NCI-H322M [5]): 4.48 µM
CC50 (NCI-H322M [5]; [20]): 24.7 µM
GI50 (A549): 0.927 µM
LC50 (concentration killing 50% of starting cells) (A549): > 32.5 µM
TGI (A549): 5.09 µM
GI50 (RPMI-8226): 0.58 µM
IC50 (RPMI-8226): 0.58 µM
TGI (RPMI-8226): 2 µM
CC50 (RPMI-8226; [20]): > 32.5 µM
GI50 (K562 [6]): 0.921 µM
TGI (K562 [6]): > 32.5 µM
CC50 (K562 [6]; [20]): > 32.5 µM
GI50 (CCRF-CEM [7]): 0.719 µM
LC50 (CCRF-CEM [7]): > 32.5 µM
TGI (CCRF-CEM [7]): 2.7 µM
growth at 10 µM (RXF 393 [8]): -76%
growth at 10 µM (ACHN): 6.62%
growth at 10 µM (OVCAR-5 [9]): 23.3%
growth at 10 µM (OVCAR-4): -3.42%
growth at 10 µM (UACC-62): -55.1%
growth at 10 µM (IGROV-1 [10]): 10.4%
growth at 10 µM (UACC-257): -54%
growth at 10 µM (U-251): -70.4%
growth at 10 µM (NCI-H322M [11]): 24.7%
GI50 (BT-549 [12]): 1.25 µM
LC50 (50% lethal concentration) (BT-549 [12]): > 32.5 µM
TGI (BT-549 [12]): 8.07 µM
GI50 (MCF7 [13]): 0.663 µM
LC50 (MCF7 [13]): > 32.5 µM
TGI (MCF7 [13]): > 32.5 µM
GI50 (DU-145 [14]): 1.13 µM
LC50 (DU-145 [14]): 25.1 µM
TGI (DU-145 [14]): 4.63 µM
GI50 (UO-31): 0.777 µM
TGI (UO-31): 3.01 µM
CC50 (UO-31; [20]): > 32.5 µM
GI50 (RXF 393 [15]): 0.508 µM
LC50 (concentration killing 50% of cells) (RXF 393 [15]): > 32.5 µM
TGI (RXF 393 [15]): 1.67 µM
GI50 (A498): 1.4 µM
IC50 (A498): 1.4 µM
TGI (A498): 6.9 µM
CC50 (A498; [20]): > 32.5 µM
GI50 (OVCAR-8): 0.759 µM
TGI (OVCAR-8): 2.28 µM
CC50 (OVCAR-8; [20]): > 32.5 µM
GI50 (OVCAR-5 [16]): 1.57 µM
LC50 (concentration killing 50% of cells) (OVCAR-5 [16]): > 32.5 µM
TGI (OVCAR-5 [16]): 16.2 µM
GI50 (IGROV-1 [17]): 0.715 µM
LC50 (concentration killing 50% of cells) (IGROV-1 [17]): > 32.5 µM
TGI (IGROV-1 [17]): 2.22 µM
growth at 10 µM (K562 [18]): -20.8%
growth at 10 µM (CCRF-CEM [19]): -13.8%

Source: ChEMBL document CHEMBL2440076, “New triarylpyrazoles as broad-spectrum anticancer agents: design, synthesis, and biological evaluation” (Eur J Med Chem, 2013)
